Results taken from ChEMBL document CHEMBL1157146, “Structure-activity relationship of human GLO I inhibitory natural flavonoids and their growth inhibitory effects” (Bioorg Med Chem, 2008).
Active and inactive are the calls of the source. The calls are words filed in the database; no cut-off is given here.

Tests used:
HL-60 = assay: Antiproliferative activity against human HL60 cells at 30 uM after 48 hrs by MTS assay; type: functional, cell-based
Lactoylglutathione lyase [1] = molecular target: T1, Lactoylglutathione lyase (Homo sapiens, UniProt Q04760); assay: Inhibition of human recombinant His-tagged Glyoxalase 1 expressed in Sf21-Baculovirus system
Target sequence in this assay (Q04760 whole entry): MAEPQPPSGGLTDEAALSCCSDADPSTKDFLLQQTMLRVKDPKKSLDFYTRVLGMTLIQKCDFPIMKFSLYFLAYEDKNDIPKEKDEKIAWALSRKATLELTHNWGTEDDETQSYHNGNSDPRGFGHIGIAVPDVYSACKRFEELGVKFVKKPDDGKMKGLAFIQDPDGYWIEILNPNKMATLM

Lactoylglutathione lyase [2] = molecular target: T1, Lactoylglutathione lyase; assay: Inhibition of human recombinant His-tagged Glyoxalase 1 expressed in Sf21-Baculovirus system at 100 uM
Target sequence in this assay (Q04760 2-184 limits assumed): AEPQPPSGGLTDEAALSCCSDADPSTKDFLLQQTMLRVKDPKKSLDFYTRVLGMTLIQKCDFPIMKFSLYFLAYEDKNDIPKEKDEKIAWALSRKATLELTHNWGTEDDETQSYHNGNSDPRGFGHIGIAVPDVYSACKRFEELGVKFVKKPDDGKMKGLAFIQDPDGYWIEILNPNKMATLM

N[C@@H](CCC(=O)N[C@@H](CSCc1ccc(Br)cc1)C(=O)NCC(=O)OC1CCCC1)C(=O)OC1CCCC1
Activity (HL-60): Active

O=c1c(O)c(-c2ccc(O)c(O)c2)oc2cc(O)cc(O)c12
Activity (HL-60): Active

O=C(O)[C@H]1O[C@@H](Oc2cc3oc(-c4ccccc4)cc(=O)c3c(O)c2O)[C@H](O)[C@@H](O)[C@@H]1O
Activity (HL-60): Active

COc1c(O[C@H]2O[C@H](C(=O)O)[C@@H](O)[C@H](O)[C@H]2O)cc2oc(-c3ccccc3)cc(=O)c2c1O
Activity (HL-60): Active

O=c1c(O)c(-c2ccc(O)cc2)oc2cc(O)cc(O)c12 [KAEMPFEROL]
IC50 (Lactoylglutathione lyase [1]): 20.6 µM | inhibition (Lactoylglutathione lyase [2]): 60% | Activity (HL-60): Active

O=c1cc(-c2ccc(O)c(O)c2)oc2cc(O)cc(O)c12 [LUTEOLIN]
IC50 (Lactoylglutathione lyase [1]): 7.7 µM | Activity (HL-60): Active

O=c1c(O)c(-c2cc(O)c(O)c(O)c2)oc2cc(O)cc(O)c12
Activity (HL-60): Active

O=C1C[C@@H](c2ccc(O)cc2)Oc2cc(O)cc(O)c21
inhibition (Lactoylglutathione lyase [2]): 50% | Activity (HL-60): Active

O=c1cc(-c2ccccc2)oc2cc(O)c(O)c(O)c12 [BAICALEIN]
IC50 (Lactoylglutathione lyase [1]): 11 µM | Activity (HL-60): Active

O=c1c(O[C@@H]2O[C@H](CO)[C@H](O)[C@H](O)[C@H]2O)c(-c2ccc(O)c(O)c2)oc2cc(O)cc(O)c12
Activity (HL-60): Active
